Assays:
[1] = biological target: T1, human RORγt (Ligand Binding Domain) (Homo sapiens, UniProt P51449); test: Fluorescence Polarization (FP) Assay; details: 100 nM human RORγt LBD, 25 nM TAMRA probe, values are activity range bounds
T1 construct: purchased Crelux (Planegg, Germany) batch no PC5032-1
T1 sequence (P51449 269-508 limits assumed): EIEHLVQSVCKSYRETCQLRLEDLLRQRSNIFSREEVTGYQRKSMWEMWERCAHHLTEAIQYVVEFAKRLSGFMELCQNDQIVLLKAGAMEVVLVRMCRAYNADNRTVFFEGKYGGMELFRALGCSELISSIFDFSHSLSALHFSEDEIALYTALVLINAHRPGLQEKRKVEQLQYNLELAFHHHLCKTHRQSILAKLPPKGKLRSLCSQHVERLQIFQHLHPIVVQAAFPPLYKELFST
Outline: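 Binding to the RORγt ligand-binding domain was followed by FP. Displacement of a TAMRA-tagged RORγt ligand tracer (910 g/mol) was measured, with DMSO-only wells as negative control.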

[2] = biological target: T2, ligand binding domain of human RORγ (Homo sapiens, UniProt P51449); test: RORγ Reporter Assay (Gal4); type: cell-based; details: for inhibition at 1 µM: HEK-293T, 1 μM test compound, HEK293t RORγ reporter cells, 24 hour, read-out: Gal4 activity range @ 1 μM (% inhibition); for Gal4 activity range @ 0.1 μM (% inhibition): RORγ Reporter Assay (Gal4), HEK293t reporter cells, compound at 0.1 μM, values are activity range bounds
T2 construct: host or cells: HEK293t
T2 sequence (P51449 269-508 limits assumed): T1 sequence (P51449 269-508 limits assumed)
Protocol: The activity of the compounds was evaluated using a Fluorescence Polarization (FP) Assay and, RORγ Reporter assay (also referred to as Gal4 assay). The FP assay is an in vitro assay monitoring binding within the ligand binding pocket. The RORγ and the Th17 assays (another suitable assay) are both cell-based assays monitoring functional activity of the compound assayed.
RORγ Reporter Assay (Gal4)
Cell-based RORγ functional assays were performed using a commercially available assay product (INDIGO Biosciences, State College, Pa., USA; product # IB04001). The RORγ reporter cells are HEK293t cells transfected with one vector that provides high level constitutive expression of a hybrid protein comprised of the yeast Gal4-DNA binding domain fused to the ligand binding domain of human RORγ, and a second vector comprising the firefly luciferase cDNA functionally linked to the upstream activation sequence (UAS) of yeast Gal4. A suspension of RORγ Reporter Cells was prepared using the protocol and culture medium provided in the kit product, and 100 μl of the Reporter Cell suspension was then dispensed into wells of a white, collagen-treated, 96-well assay plate. Concentrated stocks of test compounds were prepared in DMSO, then further diluted using media provided in the kit to generate ‘2×-concentration’ treatment media. 100 μl of medium for each respective treatment concentration dispensed into triplicate assay wells, thereby combining with the reporter cells. All media formulations contained 10% charcoal stripped Fetal Bovine Serum, but are otherwise proprietary to INDIGO Biosciences. Final treatment concentrations for each test compound were 1,000 nM and 100 nM, each with 0.1% residual DMSO. Separate control treatments were media supplemented with vehicle only (0.1% DMSO) to determine the constitutive level of RORγ activity in the reporter cells, and the reference inverse-agonist ursolic acid (f.c. 6,000 nM to 8.2 nM in 3-fold decrements) to establish a positive control inverse-agonist dose response. Assay plates were placed in a 37° C., 5% CO2, 85% humidity incubator for 24 hour. Treatment media were then discarded, 100 μl of luciferase detection reagent was added to each well, and relative light units (RLUs) were quantified from each assay well using a plate reading luminometer. Values of average RLU+/−standard deviation were computed for all treatment sets, followed by the calculations of fold-reduction: [Average RLUVehicle/Average RLUTest Cmpd]. Percent-reduction of RORγ activity in response to respective test compound treatments was calculated: [100*(1−[Ave RLUTest Cmpd/Ave RLUVehicle)] where the theoretical minimum reduction (0% reduction) derives from Vehicle treatment only, no treatment compound. In some aspects it may be of interest to provide compounds with selective modulation of RORγ for example compounds that are selective to RORγ over RORα, compounds that are selective for RORγ versus RORPβ, and compounds that are selective for RORγ versus BOTH RORα and RORPβ. It may also be of interest to provide compounds that are selective for RORγ versus further nuclear hormone receptors such as CAR1, FXR, GR, LXRα, LXRβ, PPARα, PXR, RARα, RXRα, TRα, VDR. It is apparent to those skilled in the art that these nuclear hormone receptors are merely examples, and that selectivity against other nuclear receptors may also be of interest. It may for example be of interest to provide compounds that modulate RORγ and one or more further nuclear hormone receptors, as well as compounds that modulate both RORγ and RORα, or RORγ and RORβ. It may also be of interest to provide compounds that modulate RORγ and BOTH RORα and RORP, as well as compounds that modulate both RORγ and one or more further nuclear hormone receptors such as CAR1, FXR, GR, LXRα, LXRβ, PPARα, PXR, RARα, RXRα, TRα, VDR. It is apparent to those skilled in the art that these nuclear hormone receptors are merely examples, and that modulation of even other nuclear receptors may also be of interest. […]

SMILES | IC50 [1] | inhibition at 1 µM [2] | Gal4 activity range @ 0.1 μM (% inhibition) [2]
Cc1ccc(CNc2ncnc(N(Cc3ccc(C(F)(F)F)cc3)C3CC3)c2F)cn1 [Example A1, N4-cyclopropyl-5-fluoro-N6-[(6-methyl-3-pyridyl)methyl]-N4-[[4-(trifluoromethyl)phenyl]methyl] pyrimidine-4,6-diamine] | < 1000 nM | > 80% | >20 % inhibition
NC(=O)Cc1ccc(CNc2ncnc(N(Cc3ccc(C(F)(F)F)cc3)C3CC3)c2F)cc1 [Example A2, 2-[4-[[[6-[cyclopropyl-[[4-(trifluoromethyl)phenyl]methyl]amino]-5-fluoro-pyrimidin-4-yl]amino]methyl]phenyl]acetamide] | < 500 nM | > 80% | >80 % inhibition
CC(c1ccc(C(F)(F)F)cc1)N(c1ncnc(NCc2ccc(CC(N)=O)cc2)c1F)C1CC1 (stereo not drawn) [Example A3, 2-[4-[[[6-[cyclopropyl-[1-[4-(trifluoromethyl)phenyl]ethyl]amino]-5-fluoro-pyrimidin-4-yl]amino]methyl]phenyl]acetamide] | < 500 nM | > 80% | >50 % inhibition
NC(=O)Cc1ccc(CNc2ncnc(N(Cc3ccc(C(F)(F)F)cc3)C3CCOC3)c2F)cc1 (stereo not drawn) [Example A4, 2-[4-[[[5-fluoro-6-[tetrahydrofuran-3-yl-[[4-(trifluoromethyl)phenyl]methyl]amino]pyrimidin-4-yl]amino]methyl]phenyl]acetamide] | < 2000 nM | > 50% | >0 % inhibition
OC1(CNc2ncnc(N(Cc3ccc(C(F)(F)F)cc3)C3CC3)c2F)CCOC1 (stereo not drawn) [Example A5, 3-[[[6-[cyclopropyl-[[4-(trifluoromethyl)phenyl]methyl]amino]-5-fluoro-pyrimidin-4-yl]amino]methyl]tetrahydrofuran-3-ol] | < 1000 nM | > 80% | >20 % inhibition
NC(=O)Cc1ccc(CNc2ncnc(N(Cc3ccc(OC(F)(F)F)cc3)C3CC3)c2F)cc1 [Example A6, 2-[4-[[[6-[cyclopropyl-[[4-(trifluoromethoxy)phenyl]methyl]amino]-5-fluoro-pyrimidin-4-yl]amino]methyl]phenyl]acetamide] | < 500 nM | > 80% | >80 % inhibition
O=S1(=O)CCC(O)(CNc2ncnc(N(Cc3ccc(C(F)(F)F)cc3)C3CC3)c2F)CC1 [Example A8, 4-[[[6-[cyclopropyl-[[4-(trifluoromethyl)phenyl]methyl]amino]-5-fluoro-pyrimidin-4-yl]amino]methyl]-1,1-dioxo-thian-4-ol] | < 500 nM | > 80% | >50 % inhibition
O=S(=O)(NC1CC1)c1ccc(CNc2ncnc(N(Cc3ccc(C(F)(F)F)cc3)C3CC3)c2F)cc1 [Example A9, N-cyclopropyl-4-[[[6-[cyclopropyl-[[4-(trifluoromethyl)phenyl]methyl]amino]-5-fluoro-pyrimidin-4-yl]amino]methyl]benzenesulfonamide] | < 500 nM | > 80% | >20 % inhibition
CC(=O)N1CCC(CNc2ncnc(N(Cc3ccc(C(F)(F)F)cc3)C3CC3)c2F)CC1 [Example A11, 1-[4-[[[6-[cyclopropyl-[[4-(trifluoromethyl)phenyl]methyl]amino]-5-fluoro-pyrimidin-4-yl]amino]methyl]-1-piperidyl]ethanone] | < 500 nM | > 80% | >50 % inhibition
Fc1c(NCC2CCOCC2)ncnc1N(Cc1ccc(C(F)(F)F)cc1)C1CC1 [Example A12, N4-cyclopropyl-5-fluoro-N6-(tetrahydropyran-4-ylmethyl)-N4-[[4-(trifluoromethyl)phenyl]methyl] pyrimidine-4,6-diamine] | < 1000 nM | > 80% | >20 % inhibition
NC(=O)Cc1ccc(CNc2ncnc(N(C3CC3)C(c3ccc(C(F)(F)F)cc3)C3CC3)c2F)cc1 (stereo not drawn) [Example A13, 2-[4-[[[6-[cyclopropyl-[cyclopropyl-[4-(trifluoromethyl)phenyl]methyl]amino]-5-fluoro-pyrimidin-4-yl]amino]methyl]phenyl]acetamide] | < 500 nM | > 80% | >20 % inhibition
N#CCc1ccc(CNc2ncnc(N(Cc3ccc(C(F)(F)F)cc3)C3CC3)c2F)cc1 [Example A14, 2-[4-[[[6-[cyclopropyl-[[4-(trifluoromethyl)phenyl]methyl]amino]-5-fluoro-pyrimidin-4-yl]amino]methyl]phenyl]acetonitrile] | < 500 nM | > 80% | >50 % inhibition
NC(=O)Cc1ccc(CNc2ncnc(N(Cc3ccc(C(F)(F)F)cc3)C3CCC3)c2F)cc1 [Example A15, 2-[4-[[[6-[cyclobutyl-[[4-(trifluoromethyl)phenyl]methyl]amino]-5-fluoro-pyrimidin-4-yl]amino]methyl]phenyl]acetamide] | < 500 nM | > 80% | >20 % inhibition
COC(=O)CC(c1ccc(C(F)(F)F)cc1)N(c1ncnc(NCc2ccc(CC(N)=O)cc2)c1F)C1CC1 (stereo not drawn) [Example A16, methyl 3-[[6-[[4-(2-amino-2-oxo-ethyl)phenyl]methylamino]-5-fluoro-pyrimidin-4-yl]-cyclopropyl-amino]-3-[4-(trifluoromethyl)phenyl]propanoate] | < 500 nM | > 20% | >0 % inhibition
O=C(O)CC1(Nc2ncnc(N(Cc3ccc(C(F)(F)F)cc3)C3CC3)c2F)CCOCC1 [Example A183, 2-[4-[[6-[cyclopropyl-[[4-(trifluoromethyl)phenyl]methyl]amino]-5-fluoro-pyrimidin-4-yl]amino]tetrahydropyran-4-yl]acetic acid] | < 2000 nM | – | –
O=C(O)C(CNc1ncnc(N(Cc2ccc(C(F)(F)F)cc2)C2CC2)c1F)C1CCOCC1 (stereo not drawn) [Example A184, 3-[[6-[cyclopropyl-[[4-(trifluoromethyl)phenyl]methyl]amino]-5-fluoro-pyrimidin-4-yl]amino]-2-tetrahydropyran-4-yl-propanoic acid] | < 10000 nM | – | –
O=C(O)C(CNc1ncnc(N(Cc2ccc(C(F)(F)F)cc2)C2CC2)c1F)CC1CCOCC1 (stereo not drawn) [Example A185, 2-[[[6-[cyclopropyl-[[4-(trifluoromethyl)phenyl]methyl]amino]-5-fluoro-pyrimidin-4-yl]amino]methyl]-3-tetrahydropyran-4-yl-propanoic acid] | < 10000 nM | – | –
